The results in this text go back to the OPERA property sets (Mansouri et al. 2018).

Turning to `CCOP(=S)(OCC)Oc1cc(Cl)c(Br)cc1Cl`, the logP (commonly the decadic logarithm of the partition coefficient of the neutral form, usually between octanol and water) came out at 6.15.

As for `Clc1cc(-c2cc(Cl)c(Cl)c(Cl)c2)cc(Cl)c1Cl`, the logP turned out to be 7.41.

On to `COP(=S)(OC)Oc1cc(Cl)c(I)cc1Cl`, for which the logP is 5.51.

The compound `Clc1c(Cl)c(Cl)c(Cl)c(Cl)c1Cl` came in with a logP of 5.73.

Compound `Clc1c(Cl)c(Cl)c(-c2ccccc2)c(Cl)c1Cl` registered a logP of 6.75.

For the compound `ClC1=C(Cl)[C@]2(Cl)[C@@H]3[C@@H]4C[C@@H]([C@H]5O[C@@H]45)[C@@H]3[C@@]1(Cl)C2(Cl)Cl` (single isomer, unassigned), the logP came out at 5.4.

`ClC1=C(Cl)[C@]2(Cl)[C@H]3[C@H]([C@@H]4C=C[C@H]3C4)[C@@]1(Cl)C2(Cl)Cl` (racemic) displayed a logP of 6.5.

The compound `Clc1cccc(Cl)c1-c1c(Cl)cccc1Cl` displayed a logP of 5.94.

Compound `CCCCc1ccccc1` displayed a logP of 4.38.

For `CCc1ccc2c(c1)C(=O)c1ccccc1C2=O`, the logP amounted to 4.37.

`Clc1cc(Cl)c(Cl)c(-c2c(Cl)c(Cl)cc(Cl)c2Cl)c1Cl` gave a logP of 7.73.

For the compound `Clc1ccc(-c2ccc(Cl)c(Cl)c2)cc1Cl`, the logP amounted to 6.63.

Consider `CCCCC(CC)COC(=O)c1ccccc1C(=O)OCC(CC)CCCC` (stereo not drawn), for which the logP was found to be 7.6.
